The NIST ThermoML archive (doi:10.1021/acs.jced.5b00367)

Assay: wn = mass fraction of the nth substance listed
Settings: 101 kPa, Liquid, Alternating current cell with electrodes, w2 = 0.01

CCCCCCCCCCCCCCCC[N+](C)(C)C.[Br-] [N,N,N-trimethyl-1-hexadecanaminium bromide] + O
Settings	electrical conductivity [S/m]
299.55 K	0.0651
299.75 K	0.0653
299.95 K	0.0654
300.25 K	0.0657
300.85 K	0.066
301.25 K	0.0662
301.45 K	0.0663
302.05 K	0.0667
302.25 K	0.0668
302.55 K	0.067
302.65 K	0.0671
302.85 K	0.0672
302.95 K	0.0666
303.05 K	0.0673
303.15 K	0.0675
303.35 K	0.0676
303.65 K	0.0678
303.85 K	0.0679
304.05 K	0.068
304.25 K	0.0682
304.45 K	0.0683
304.55 K	0.0684
304.75 K	0.0685
304.95 K	0.0687
305.15 K	0.0688
305.45 K	0.0689
305.65 K	0.0692
306.25 K	0.0695
306.45 K	0.0696
306.85 K	0.0699
307.05 K	0.07
307.35 K	0.0702
307.45 K	0.0703
307.75 K	0.0705
307.95 K	0.0707
308.65 K	0.0712
308.85 K	0.0714
309.05 K	0.0715
309.35 K	0.0712
309.55 K	0.0718
309.75 K	0.0719
309.85 K	0.0721
310.05 K	0.0722
310.25 K	0.0723
310.45 K	0.0724
310.65 K	0.0727
310.85 K	0.0728
311.25 K	0.073
311.55 K	0.0732
311.75 K	0.0735
312.05 K	0.0737
312.55 K	0.074
312.95 K	0.0744
313.35 K	0.0745
313.55 K	0.0747
313.75 K	0.0748
313.95 K	0.075
314.15 K	0.0752
314.35 K	0.0753
314.55 K	0.0755
314.75 K	0.0756
314.95 K	0.0759
315.45 K	0.0761
315.55 K	0.0762
315.75 K	0.0764
315.95 K	0.0765
316.15 K	0.0767
316.35 K	0.0769
316.65 K	0.0771
317.05 K	0.0775
317.15 K	0.0776
318.05 K	0.0778
318.25 K	0.0783
318.45 K	0.0786
318.95 K	0.079
319.25 K	0.0792
319.75 K	0.0798
320.25 K	0.08
320.35 K	0.0802
320.65 K	0.0816
321.85 K	0.0817
322.05 K	0.0819
322.25 K	0.082
322.35 K	0.0823
322.75 K	0.0824
322.85 K	0.0826
323.15 K	0.083
323.35 K	0.0832
323.45 K	0.0834
323.65 K	0.0837
